From patent US11000033B2, “Ketone or oxime compound, and herbicide” (NISSAN CHEMICAL CORPORATION, priority 2014, dated 2021) come the findings set out here.

Format in all cases: in vivo
In data set [1] the test system is Lolium multiflorum Lam. As to the kind of experiment: Test Example 5: herbicidal effect by foliage application, plastic box (symbol K). As to conditions: 3 weeks after application. The method, boiled down: (§1)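 Herbicide, formulated as an emulsion and diluted in water, is sprayed onto the aerial parts of 14-day seedlings. These were grown at 25° C. to 30° C. in sterilized diluvial soil; effects are graded after 3 weeks.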

Data set [2] has as its system Setaria viridis. As to the kind of experiment: Test Example 4: herbicidal effect by soil treatment (symbol G). The gist of the method:
(§2)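 Seeds were sown in sterilized diluvial soil, covered with about 1.5 cm of soil, and the soil surface was sprayed with a water-diluted emulsion of the compound at a predetermined rate. Plants grew in a greenhouse at 25° C. to 30° C.; effects were scored visually 3 weeks after application.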

The next data set concerns Apera spica-venti. As to the kind of experiment: Test Example 4: herbicidal effect by soil treatment (symbol L). The gist of the method:
as §2

The subject of data set [3] is soybean. As to the kind of experiment: Test Example 4: effect on crop by soil treatment (symbol d). The method, boiled down: (§3)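 Soil-treatment setup: crop and weed seeds were spot-sown into sterilized diluvial soil, then buried beneath approximately 1.5 cm of it, and the boxes were housed in a 25–30° C. greenhouse.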
The next data set deals with wheat. As to the kind of experiment: Test Example 4: effect on crop by soil treatment (symbol e). The gist of the method:
as §3

Another data set deals with Galium spurium. As to the kind of experiment: Test Example 4: herbicidal effect by soil treatment (symbol Q). From the text:
Herbicidal Effect Test by Soil Treatment
Sterilized diluvial soil was placed in a plastic box having a length of 21 cm, a width of 13 cm, and a depth of 7 cm. Each of the seeds of Digitaria ciliaris, Setaria viridis, Echinochloa crus-galli var. crus-galli, Avena fatua, Alopecurus myosuroides, Lolium multiflorum Lam., Apera spica-venti, Abutilon theophrasti, Amaranthus retroflexus, Chenopodium album, Stellaria media, Galium spurium, Veronica persica, corn, soybean, rice, wheat, beet, and rapeseed was sowed in a spot-like manner and was covered with the soil of a thickness of about 1.5 cm. Subsequently, the emulsion agent of the compound present invention prepared in accordance with Formulation Example 2 was diluted with water so as to be a predetermined herbicide amount and the diluted emulsion agent was uniformly applied to the surface of the soil with a small-size spray. The plastic box was placed in a greenhouse of 25° C. to 30° C. to grow plant. 3 weeks later from the herbicide application, the effect to each plant was investigated in accordance with the criteria of Test Example 1.

Data set [4] concerns Echinochloa oryzacola Vasing. As to the kind of experiment: Test Example 1: herbicidal activity, application before weed generation in submerged conditions (symbol A). The method, boiled down: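 Greenhouse growth at 25–30 °C lasted 3 weeks after treatment, when each weed was graded 0–5 by herbicidal ratio. Treatment was a diluted emulsion applied to the water surface of 4 cm-submerged alluvial soil on the sowing day.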

In another data set the test system is Veronica persica. As to the kind of experiment: Test Example 5: herbicidal effect by foliage application, plastic box (symbol R). The following applies: 3 weeks after application. The method, boiled down: as §1
For data set [5], the system named is Alopecurus myosuroides. As to the kind of experiment: Test Example 4: herbicidal effect by soil treatment (symbol J). The method, boiled down:
as §2

A further data set relates to corn. As to the kind of experiment: Test Example 4: effect on crop by soil treatment (symbol c). The gist of the method:
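Plants are raised in a greenhouse (25° C. to 30° C.) from spot-sown seed, which sits under about 1.5 cm of sterilized diluvial soil in a box shared with weed species.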

A further data set relates to rice. As to the kind of experiment: Test Example 4: effect on crop by soil treatment (symbol b). The gist of the method: as §3
A further data set has as its system Cyperus difformis. As to the kind of experiment: Test Example 3: herbicidal effect by foliage application, Wagner pot (symbol E). The gist of the method:
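Post-emergence, paddy-type test: seedlings 14 d old in shallow-flooded (0.1–0.5 cm) alluvial soil, 25–30 °C greenhouse. Emulsion diluted to target rate, sprayed on leaves. Read-out: visual effect on each species at 3 weeks, per set criteria.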

The test system of data set [6] is soybean. As to the kind of experiment: Test Example 5: effect on crop by foliage application, plastic box (symbol d). The following applies: 3 weeks after application. The gist of the method:
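Box culture: sterile diluvial soil, seeds spot-sown, ~1.5 cm cover, raised under glass at 25–30° C.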

A further data set deals with Avena fatua. As to the kind of experiment: Test Example 5: herbicidal effect by foliage application, plastic box (symbol I). The following applies: 3 weeks after application. The method, boiled down:
as §1

For data set [7], the system named is Lolium multiflorum Lam. As to the kind of experiment: Test Example 4: herbicidal effect by soil treatment (symbol K). The method, boiled down:
as §2

The test system of another data set is Amaranthus retroflexus. As to the kind of experiment: Test Example 5: herbicidal effect by foliage application, plastic box (symbol N). The following applies: 3 weeks after application. The gist of the method: as §1
In data set [8] the test system is Alopecurus myosuroides. As to the kind of experiment: Test Example 5: herbicidal effect by foliage application, plastic box (symbol J). The following applies: 3 weeks after application. The gist of the method:
as §1

Data set [9] deals with Setaria viridis. As to the kind of experiment: Test Example 5: herbicidal effect by foliage application, plastic box (symbol G). As to conditions: 3 weeks after application. The gist of the method:
as §1

[10] abbreviates: application herbicide amount 320 g/ha.
The mark [11] stands for this setting: application herbicide amount 269 g/ha.

Regarding `CON=C(C)CC1CC(OC(C)=O)=C(c2c(C)cc(C)cc2C)C1=O` (stereo not drawn) [1-005], the “K: Lolium multiflorum Lam., herbicidal effect grade” value in the data set with Lolium multiflorum Lam. [1] (320 g/ha) is recorded as 5 (Herbicidal ratio of 90% or more (almost completely withered)). Moreover, in the data set on Setaria viridis [2] (setting [10]), the “G (Setaria viridis) herbicidal effect grade” value was 3 (Herbicidal ratio of 40% or higher and lower than 70%). Moreover, the “L (Apera spica-venti) herbicidal effect grade” value in the data set on Apera spica-venti (setting [10]) is 5 (Herbicidal ratio of 90% or more (almost completely withered)). In addition, the “d (soybean) effect on crop grade” value with soybean [3] (setting [10]) was 2 (Herbicidal ratio of 20% or higher and lower than 40%). In the data set on wheat (setting [10]), the “e (wheat) effect on crop grade” value is 4 (Herbicidal ratio of 70% or higher and lower than 90%). Also, in the data set on Galium spurium (setting [10]), the “Q (Galium spurium) herbicidal effect grade” value is recorded as 0 (Herbicidal ratio of 5% or lower (almost no effect)). Moreover, in [4] (setting [10]), the “Herbicidal effect grade, A: Echinochloa oryzacola Vasing.” value is listed as 5 (Herbicidal ratio of 90% or more (almost completely withered)). In addition, the “R: Veronica persica, herbicidal effect grade” value with Veronica persica (320 g/ha) is 3 (Herbicidal ratio of 40% or higher and lower than 70%). In the data set with Alopecurus myosuroides [5] (setting [10]), the “J (Alopecurus myosuroides) herbicidal effect grade” value is 5 (Herbicidal ratio of 90% or more (almost completely withered)). The “c (corn) effect on crop grade” value in the data set on corn (setting [10]) was 4 (Herbicidal ratio of 70% or higher and lower than 90%). Besides, the “b (directly sowed rice plant) effect on crop grade” value in the data set on rice (setting [10]) is reported as 5 (Herbicidal ratio of 90% or more (almost completely withered)). The “herbicidal effect on E, grade 0-5” value with Cyperus difformis (setting [10]) is listed as 5 (Herbicidal ratio of 90% or more (almost completely withered)). In addition, in the data set with soybean [6] (320 g/ha), the “d: soybean, effect on crop grade” value is 4 (Herbicidal ratio of 70% or higher and lower than 90%). Further, the “I: Avena fatua, herbicidal effect grade” value with Avena fatua (320 g/ha) was 5 (Herbicidal ratio of 90% or more (almost completely withered)). Moreover, the “K (Lolium multiflorum Lam.) herbicidal effect grade” value with Lolium multiflorum Lam. [7] (setting [10]) is given as 5 (Herbicidal ratio of 90% or more (almost completely withered)). For the same compound, the “N: Amaranthus retroflexus, herbicidal effect grade” value in the data set with Amaranthus retroflexus (320 g/ha) was 4 (Herbicidal ratio of 70% or higher and lower than 90%). The “J: Alopecurus myosuroides, herbicidal effect grade” value with Alopecurus myosuroides [8] (320 g/ha) is 5 (Herbicidal ratio of 90% or more (almost completely withered)). Further, the “G: Setaria viridis, herbicidal effect grade” value with Setaria viridis [9] (320 g/ha) is 5 (Herbicidal ratio of 90% or more (almost completely withered)).
`CC(=O)C(C)C1CC(O)=C(c2c(C)cc(C)cc2C)C1=O` (stereo not drawn) [2-005]: the “K: Lolium multiflorum Lam., herbicidal effect grade” value with Lolium multiflorum Lam. [1] (269 g/ha) and in the data set with Lolium multiflorum Lam. [7] (setting [11]) was 5 (Herbicidal ratio of 90% or more (almost completely withered)) in each case. Also, the “G: Setaria viridis, herbicidal effect grade” value with Setaria viridis [2] (setting [11]) was 4 (Herbicidal ratio of 70% or higher and lower than 90%); in the data set on Setaria viridis [9] (269 g/ha), 4 (Herbicidal ratio of 70% or higher and lower than 90%). Besides, in the data set with Apera spica-venti (setting [11]), the “L: Apera spica-venti, herbicidal effect grade” value was 1 (Herbicidal ratio of 5% or higher and lower than 20%). Moreover, the “d: soybean, effect on crop grade” value with soybean [3] (setting [11]) and in the data set on soybean [6] (269 g/ha) was 0 (Herbicidal ratio of 5% or lower (almost no effect)) throughout. In the data set on wheat (setting [11]), the “e: wheat, effect on crop grade” value is on record as 0 (Herbicidal ratio of 5% or lower (almost no effect)). For the same compound, the “Q: Galium spurium, herbicidal effect grade” value with Galium spurium (setting [11]) was 0 (Herbicidal ratio of 5% or lower (almost no effect)). Besides, the “Herbicidal effect grade, A: Echinochloa oryzacola Vasing.” value in [4] (setting [11]) was 3 (Herbicidal ratio of 40% or higher and lower than 70%). For the same compound, the “R: Veronica persica, herbicidal effect grade” value in the data set with Veronica persica (269 g/ha) was 0 (Herbicidal ratio of 5% or lower (almost no effect)). The “J: Alopecurus myosuroides, herbicidal effect grade” value is 4 (Herbicidal ratio of 70% or higher and lower than 90%) with Alopecurus myosuroides [5] (setting [11]); 5 (Herbicidal ratio of 90% or more (almost completely withered)) with Alopecurus myosuroides [8] (269 g/ha). In addition, the “c: corn, effect on crop grade” value in the data set on corn (setting [11]) is listed as 0 (Herbicidal ratio of 5% or lower (almost no effect)). Moreover, the “b: directly sowed rice plant, effect on crop grade” value in the data set with rice (setting [11]) is listed as 5 (Herbicidal ratio of 90% or more (almost completely withered)). Besides, the “herbicidal effect on E, grade 0-5” value in the data set on Cyperus difformis (setting [11]) is 4 (Herbicidal ratio of 70% or higher and lower than 90%). Besides, the “I: Avena fatua, herbicidal effect grade” value in the data set with Avena fatua (269 g/ha) is 3 (Herbicidal ratio of 40% or higher and lower than 70%). Besides, the “N: Amaranthus retroflexus, herbicidal effect grade” value with Amaranthus retroflexus (269 g/ha) was 0 (Herbicidal ratio of 5% or lower (almost no effect)).
